We go through six substances from patent US7267990B2, “Chelation of charged and uncharged molecules with porphyrin-based compounds” (priority 2002, dated 2007).

For data set [1], the system named is healthy female Balb/c mice. The following applies: mouse, in vivo. An excerpt:
So far we have determined maximum tolerated doses for compounds 4, 6, 16, 31, and 33 using healthy female Balb/c mice.

The test system of data set [2] is V79 hamster fibroblast cells. Kind of data set: Clonogenic cytotoxicity assay in V79 cells. The format is cell-based. As to conditions: concentrations up to 200 μM. The protocol: Human glioblastoma U373 MG, hamster V79 fibroblast, and mouse melanoma B16 cells were obtained from the American Type Culture Collection. Rat gliosarcoma cells were kindly provided by the University of California at San Francisco Brain Tumor Research Group. All cells were maintained in log phase monolayer cultures with RPMI 1640 supplemented with 10% fetal bovine serum and 2 mM glutamine. We have also determined the cytotoxicity of porphyrins 4, 16, 18, and 31 in V79 hamster fibroblast cells using a clonogenic assay. For each of these porphyrins, we found CS50>300 μM, and we observed no toxicity (i.e., no effect on colony survival) at concentrations up to 200 μM.

Data set [3] concerns rat 9 L gliosarcoma cells. Kind of data set: Dark cytotoxicity assay, 9L cells. The format is cell-based. As to conditions: 24 hour exposure, concentrations up to 250 μM, read-out: IC50 (dark toxicity, inhibition of proliferation). How it is done: (§1) Human glioblastoma U373 MG, hamster V79 fibroblast, and mouse melanoma B16 cells were obtained from the American Type Culture Collection. Rat gliosarcoma cells were kindly provided by the University of California at San Francisco Brain Tumor Research Group. All cells were maintained in log phase monolayer cultures with RPMI 1640 supplemented with 10% fetal bovine serum and 2 mM glutamine.
(§2) Cells were seeded in 96-well culture plates, and were allowed to settle and attach for 24-48 hours. Triplicate wells were then exposed to twofold serial dilutions of test compounds at concentrations up to 250 μM. Compounds 4, 6, 10, and 12 in crystalline form were carefully weighed and dissolved in 100% DMSO to prepare stock solutions. Subsequent dilutions were performed directly in the culture medium just before the medium was administered to cells. After short-term (2 hour) or long-term (24 hour) exposure, cells were washed, and the wells were refilled with fresh culture medium. For dark toxicity trials, cells were allowed to proliferate for an additional 48-72 hours. For phototoxicity trials, washed cells were irradiated for 10 minutes with broad spectrum (600-700 nm) red light, and were then returned to an incubator for 48-72 hours.

The test system of data set [4] is human U-373MG glioblastoma cells. Kind of data set: Dark cytotoxicity assay, U-373 MG cells. The format is cell-based. The following applies: 24 hour exposure, concentrations up to 250 μM, read-out: IC50 (dark toxicity, inhibition of proliferation). The protocol:
as §1, §2

For the substance “5,15-bis[bis-3,5-(1-methyl-o-carboranyl)methylphenyl]porphyrin [Compound 33]”, in data set [1], the maximum tolerated dose entry is on record as “exceeded 300 mg per kg of body weight”.

In the case of “Zn(II)-meso-tetra[4-(1-methyl-nido-carboranyl)methylphenyl]porphyrin tetrapotassium salt [Compound 6]”, in data set [1], the maximum tolerated dose result is given as “exceeded 300 mg per kg of body weight”.

On to “Zn(II)-meso-tetra[4-(nido-carboranyl)phenyl]porphyrin tetrapotassium salt [Compound 18]”, for which the “toxicity (effect on colony survival)” value in data set [2] is “no toxicity”.

Take “meso-tetra[3-(1-methyl-nido-carboranyl)methylphenyl]porphyrin tetrapotassium salt [Compound 10]”: the IC50 in data set [3] and in data set [4] was about 150 µM throughout.

As to “meso-tetra[4-(1-methyl-nido-carboranyl)methylphenyl]porphyrin tetrapotassium salt [Compound 4]”, the IC50 in data set [3] and in data set [4] was about 150 µM throughout. Further, in data set [1], the maximum tolerated dose result is reported as “exceeded 300 mg per kg of body weight”. Also, in data set [2], the “toxicity (effect on colony survival)” value is listed as “no toxicity”.

As for “meso-tetra[4-(nido-carboranyl)phenyl]porphyrin tetrapotassium salt [Compound 16]”, the maximum tolerated dose result in data set [1] was “exceeded 300 mg per kg of body weight”. Also, in data set [2], the “toxicity (effect on colony survival)” value is on record as “no toxicity”.
